Reference: patent US12692257B2, “2,4,6-tri-substituted pyrimidine compounds as ATR kinase inhibitors” (BEIJING TIDE PHARMACEUTICAL CO., LTD., priority 2020, dated 2026)

biological target: ATR kinase (Homo sapiens, UniProt Q13535); assay: Assay of ATR kinase activity (time-resolved fluorescence, phosphorylation of p53-derived protein); format: biochemical; details: not given
Protocol: Biotinylated protein derived from p53 (Eurofins, art. No.: 14-952) was phosphorylated with ATR kinase. The amount of phosphorylated protein was determined by time-resolved fluorescence in this assay. The amount of phosphorylated protein was detected by anti-p53-phospho-(serine 15)-K-specific antibody (Cisbio, art. No.: 61GSTDLA) and d2 labeled anti-GST antibody (Cisbio, art. No. 61P08KAE). Before the assay, the following working solutions were formulated as required: 1×reaction buffer (20 mM HEPES PH8.0, 1% glycerol, 0.01% Brij-35), dilution buffer (20 mM HEPES PH8.0, 1% glycerol, 0.01% Brij-35, 5 mM DTT and 1% BSA), stop solution (20 mM HEPES PH8.0, 1% glycerol, 0.01% Brij-35, 250 mM EDTA), detection buffer (50 mM HEPES pH7.0, 150 mM NaCl, 267 mM KF, 0.1% sodium cholate, 0.01% Tween-20, 0.0125% sodium azide). The reagents used above were purchased from Sigma or Invitrogen, except for those whose manufacturers were mentioned.
Operations were as follows:
4× serially diluted compound solutions were prepared with 1× reaction buffer to give 9 compound solutions with different concentrations, and 2.5 μL of the 4× serially diluted compound solutions were added to a 384-well analysis plate (784075, Greiner). 4×p53 substrate working solution (40 nM) was prepared with 1× reaction buffer, and 2.5 μL of the 4×p53 substrate working solution was added to a 384-well analysis plate. 4×ATR/ATRIP working solution (12.8 ng/μL) was prepared with dilution buffer, and 2.5 μL of the 4×pATR/ATRIP working solution was added to a 384-well analysis plate. 4×ATP working solution (2 mM) was prepared with deionized water, and 2.5 μL of the 4×ATP working solution was added to a 384-well analysis plate. The plates were incubated at room temperature in dark for 30 minutes. 5 μL of stop solution was added to the 384 analysis plates. Finally, 5 μL of assay mixture (0.084 ng/μL Anti-phospho-p53(ser15)-K and 5 ng/μL Anti-GST-d2) was added to the 384 well analysis plates, and incubated at room temperature overnight. The fluorescence signal was detected with ENVISION (Perkinelmer) instrument (excitation wavelength: 320 nm, emission wavelength: 665 nm and 615 nm). The inhibition rate in each well was calculated by the fluorescence intensity value in each well:ER (Emission Ratio)=(Fluorescence intensity at 665 nm/Fluorescence intensity at 615 nm); inhibition rate=(ER of positive−ER of assay compound)/(ER of positive−ER of negative)×100%. IC50 values of compounds were calculated by standard software for parameter fitting (GraphPad Prism 6.0).

ATR kinase, sequence (Q13535 whole entry): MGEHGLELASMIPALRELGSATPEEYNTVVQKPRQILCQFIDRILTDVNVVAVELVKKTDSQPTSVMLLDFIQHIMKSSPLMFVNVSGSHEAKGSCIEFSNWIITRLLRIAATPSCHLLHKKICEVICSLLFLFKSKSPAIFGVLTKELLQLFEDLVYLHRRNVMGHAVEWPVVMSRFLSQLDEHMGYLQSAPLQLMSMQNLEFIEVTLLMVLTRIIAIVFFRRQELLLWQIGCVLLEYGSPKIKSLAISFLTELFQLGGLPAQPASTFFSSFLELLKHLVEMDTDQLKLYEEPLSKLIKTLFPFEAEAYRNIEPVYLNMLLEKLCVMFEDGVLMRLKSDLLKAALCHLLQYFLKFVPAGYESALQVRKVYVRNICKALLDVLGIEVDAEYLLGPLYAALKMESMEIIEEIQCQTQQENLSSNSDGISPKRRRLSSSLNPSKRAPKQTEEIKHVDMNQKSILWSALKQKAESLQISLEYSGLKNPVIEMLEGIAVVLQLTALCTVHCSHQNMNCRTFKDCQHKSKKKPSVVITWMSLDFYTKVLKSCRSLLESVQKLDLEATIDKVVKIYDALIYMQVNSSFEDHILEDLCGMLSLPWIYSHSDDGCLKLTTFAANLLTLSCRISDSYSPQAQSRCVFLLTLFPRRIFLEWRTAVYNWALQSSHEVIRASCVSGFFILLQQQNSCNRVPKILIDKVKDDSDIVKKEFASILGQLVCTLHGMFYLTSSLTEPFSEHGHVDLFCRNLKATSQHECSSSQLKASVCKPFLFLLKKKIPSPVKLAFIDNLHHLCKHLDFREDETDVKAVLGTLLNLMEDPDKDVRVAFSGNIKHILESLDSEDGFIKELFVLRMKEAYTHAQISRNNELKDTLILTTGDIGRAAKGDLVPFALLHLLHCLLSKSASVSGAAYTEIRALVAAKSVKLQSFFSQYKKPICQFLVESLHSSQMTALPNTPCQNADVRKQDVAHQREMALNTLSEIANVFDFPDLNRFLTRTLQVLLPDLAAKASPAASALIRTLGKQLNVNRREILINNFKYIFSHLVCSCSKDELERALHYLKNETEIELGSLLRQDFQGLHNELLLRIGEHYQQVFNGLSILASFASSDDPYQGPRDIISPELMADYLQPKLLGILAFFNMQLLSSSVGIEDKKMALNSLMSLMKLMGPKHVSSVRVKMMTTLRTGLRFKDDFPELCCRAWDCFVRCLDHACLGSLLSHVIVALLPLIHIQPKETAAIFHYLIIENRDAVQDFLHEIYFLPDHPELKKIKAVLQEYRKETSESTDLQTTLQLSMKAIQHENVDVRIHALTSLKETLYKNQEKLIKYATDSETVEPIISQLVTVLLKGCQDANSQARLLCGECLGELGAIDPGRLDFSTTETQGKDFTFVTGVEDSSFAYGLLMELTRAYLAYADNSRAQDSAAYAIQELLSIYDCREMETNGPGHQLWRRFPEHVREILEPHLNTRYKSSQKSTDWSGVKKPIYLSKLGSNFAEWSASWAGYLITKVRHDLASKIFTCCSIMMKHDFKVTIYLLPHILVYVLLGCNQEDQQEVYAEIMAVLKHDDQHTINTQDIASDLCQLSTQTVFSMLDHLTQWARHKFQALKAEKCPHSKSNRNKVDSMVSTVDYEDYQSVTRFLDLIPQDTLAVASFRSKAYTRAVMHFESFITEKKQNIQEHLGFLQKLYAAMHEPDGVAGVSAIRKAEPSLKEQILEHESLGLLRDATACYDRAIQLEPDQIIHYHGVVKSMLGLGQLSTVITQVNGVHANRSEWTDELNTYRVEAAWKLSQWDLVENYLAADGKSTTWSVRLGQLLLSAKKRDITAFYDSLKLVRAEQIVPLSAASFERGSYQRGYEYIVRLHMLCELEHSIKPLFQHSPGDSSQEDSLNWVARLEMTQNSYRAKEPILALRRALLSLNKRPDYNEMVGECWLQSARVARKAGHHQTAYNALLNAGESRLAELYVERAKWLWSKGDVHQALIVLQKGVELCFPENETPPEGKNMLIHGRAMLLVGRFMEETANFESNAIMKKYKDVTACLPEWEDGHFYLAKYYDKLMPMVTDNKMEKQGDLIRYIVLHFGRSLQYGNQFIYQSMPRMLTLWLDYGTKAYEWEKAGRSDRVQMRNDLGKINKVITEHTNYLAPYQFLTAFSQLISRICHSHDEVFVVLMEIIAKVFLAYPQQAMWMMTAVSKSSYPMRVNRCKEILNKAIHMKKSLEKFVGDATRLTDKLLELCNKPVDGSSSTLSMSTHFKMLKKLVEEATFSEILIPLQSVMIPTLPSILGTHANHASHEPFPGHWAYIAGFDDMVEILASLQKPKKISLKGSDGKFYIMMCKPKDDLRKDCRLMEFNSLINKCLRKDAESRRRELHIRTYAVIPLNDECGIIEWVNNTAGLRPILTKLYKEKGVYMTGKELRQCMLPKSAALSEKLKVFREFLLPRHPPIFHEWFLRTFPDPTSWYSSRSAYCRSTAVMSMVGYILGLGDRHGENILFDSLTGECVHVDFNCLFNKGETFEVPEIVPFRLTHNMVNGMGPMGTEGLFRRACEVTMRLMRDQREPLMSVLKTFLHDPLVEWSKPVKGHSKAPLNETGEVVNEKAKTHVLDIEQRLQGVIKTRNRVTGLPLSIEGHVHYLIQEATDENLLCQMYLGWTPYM
ATR kinase, sequence (Q8WXE1 whole entry partner): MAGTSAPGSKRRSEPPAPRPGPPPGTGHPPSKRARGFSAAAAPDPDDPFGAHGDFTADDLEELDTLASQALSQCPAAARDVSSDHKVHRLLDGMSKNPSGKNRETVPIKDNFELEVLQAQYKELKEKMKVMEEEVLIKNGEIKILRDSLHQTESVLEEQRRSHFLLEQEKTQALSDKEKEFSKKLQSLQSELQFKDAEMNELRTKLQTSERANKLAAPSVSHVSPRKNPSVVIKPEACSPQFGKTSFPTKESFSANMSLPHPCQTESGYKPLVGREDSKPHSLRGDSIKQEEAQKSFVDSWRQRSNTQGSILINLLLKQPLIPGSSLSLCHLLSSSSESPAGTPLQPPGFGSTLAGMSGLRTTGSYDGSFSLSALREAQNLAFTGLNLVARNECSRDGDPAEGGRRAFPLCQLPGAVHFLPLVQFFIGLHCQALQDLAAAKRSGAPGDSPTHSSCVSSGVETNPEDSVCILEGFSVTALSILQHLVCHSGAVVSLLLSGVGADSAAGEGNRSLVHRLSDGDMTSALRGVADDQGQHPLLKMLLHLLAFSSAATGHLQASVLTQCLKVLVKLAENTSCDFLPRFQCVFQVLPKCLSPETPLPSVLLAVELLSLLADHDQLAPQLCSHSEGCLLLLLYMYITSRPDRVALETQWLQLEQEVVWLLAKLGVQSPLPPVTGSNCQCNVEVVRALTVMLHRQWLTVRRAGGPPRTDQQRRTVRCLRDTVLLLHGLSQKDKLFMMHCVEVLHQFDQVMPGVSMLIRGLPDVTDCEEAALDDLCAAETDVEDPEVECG

SMILES	IC50
Cc1nn(-c2cncc(O)c2)c(C)c1-c1cc(N2CCOC[C@H]2C)nc(-c2cccc3[nH]ccc23)n1 [Compound A23]	3 nM
Cc1nn(-c2cncc(C(N)=O)c2)c(C)c1-c1cc(N2CCOC[C@H]2C)nc(-c2cccc3[nH]ccc23)n1 [Compound A24]	1 nM
Cc1nn(-c2cnccn2)c(C)c1-c1cc(N2CCOC[C@H]2C)nc(-c2cc(F)cc3[nH]ccc23)n1 [Compound A25]	7 nM
CNc1nc2ccccc2n1-c1nc(-c2c(C)nn(-c3ccc(C#N)nc3)c2C)cc(N2CCOC[C@H]2C)n1 [Compound B2]	22 nM
CNc1nc2ccccc2n1-c1nc(-c2c(C)nn(-c3cncc(Cl)c3)c2C)cc(N2CCOC[C@H]2C)n1 [Compound B3]	49 nM
CNc1nc2ccccc2n1-c1nc(-c2c(C)nn(-c3cncc(C#N)c3)c2C)cc(N2CCOC[C@H]2C)n1 [Compound B4]	17 nM
CNc1nc2ccccc2n1-c1nc(-c2c(C)nn(-c3cnc(N)c(F)c3)c2C)cc(N2CCOC[C@H]2C)n1 [Compound B5]	16 nM
CNc1nc2ccccc2n1-c1nc(-c2c(C)nn(-c3cccnc3)c2C)cc(N2CCOC[C@H]2C)n1 [Compound B6]	13 nM
CNc1nc2ccccc2n1-c1nc(-c2c(C)nn(-c3ccc(OC)nc3)c2C)cc(N2CCOC[C@H]2C)n1 [Compound B7]	62 nM
CC#Cc1cncc(-n2nc(C)c(-c3cc(N4CCOC[C@H]4C)nc(-n4c(NC)nc5ccccc54)n3)c2C)c1 [Compound B8]	69 nM
CNc1nc2ccccc2n1-c1nc(-c2c(C)nn(-c3ccc(=O)[nH]c3)c2C)cc(N2CCOC[C@H]2C)n1 [Compound B9]	3 nM
CNc1nc2ccccc2n1-c1nc(-c2c(C)nn(-c3cncc(C(N)=O)c3)c2C)cc(N2CCOC[C@H]2C)n1 [Compound B10]	5 nM
Cc1nn(-c2cncc(F)c2)c(C)c1-c1cc(N2CCOC[C@H]2C)nc(-n2c(NCCO)nc3ccccc32)n1 [Compound B11]	15 nM
Cc1nn(-c2cncc(F)c2)c(C)c1-c1cc(N2CCOC[C@H]2C)nc(-n2c(N)nc3ccccc32)n1 [Compound B12]	3 nM
Cc1nn(-c2ccc(=O)[nH]c2)c(C)c1-c1cc(N2CCOC[C@H]2C)nc(-n2c(NCCO)nc3ccccc32)n1 [Compound B13]	5 nM
Cc1nn(-c2cncc(F)c2)c(C)c1-c1nc(-c2cccc3[nH]ccc23)nc(N2CCOC[C@H]2C)n1 [Compound C1]	18 nM
Cc1nn(-c2cncc(F)c2)c(C)c1-c1cc(C23CCOCC2C3)nc(-c2cc(F)cc3[nH]ccc23)n1 (stereo not shown) [Compound C2]	13 nM

test system: TOV21G (ovarian cancer); assay: Cell proliferation inhibition in vitro, CellTiter-Glo, TOV21G; format: cell-based; details: Homo sapiens, TOV21G, 120 h, read-out: TOV21G/IC50/μM
Protocol: (§1) By detecting the effect of compounds on cell activity in vitro in tumor cell lines TOV21G (ovarian cancer) and MV4-11 (leukemia), the inhibitory effect of compounds on cell proliferation was studied in this assay.
(§2) TOV21G cells and MV4-11 cells were purchased from American Type Culture Collection (ATCC).
TOV21G cells were cultured in MCDB105/M199 medium (containing 15% of FBS), and used for assaying when the cell confluence reached 85% or more. About 1000 cells were inoculated in each well of a 96-well culture plate, and cultured for 24 hours. Different concentrations (0-10 μM) of compounds to be assayed were added to treat the cells. Each group was assayed in triplicate. Blank wells (containing medium only) and control wells (inoculated cells without being treated with drug) were set. Cells were cultured for 120 hours. 40 μL of Cell Titer-Glo solutions (Promega, #G7573) were added to each well, and the cells were incubated with shaking for 20 min in the dark. 100 μL of solution was transferred from each well to a 96-well blank plate (Corning, #3917), and the luminescence value was read by Biotek Synergy H1 multifunctional microplate reader.

SMILES	IC50
Cc1nn(-c2cncc(F)c2)c(C)c1-c1nc(-c2cccc3[nH]ccc23)nc(N2CCOC[C@H]2C)n1 [Compound C1]	0.349 µM

same assay, conditions: Homo sapiens; TOV21G cells, 120 hours, CellTiter-Glo; read-out: TOV21G/IC50/μM

SMILES	IC50
Cc1nn(-c2cncc(O)c2)c(C)c1-c1cc(N2CCOC[C@H]2C)nc(-c2cccc3[nH]ccc23)n1 [Compound A23]	0.24 µM
Cc1nn(-c2cncc(C(N)=O)c2)c(C)c1-c1cc(N2CCOC[C@H]2C)nc(-c2cccc3[nH]ccc23)n1 [Compound A24]	0.22 µM
Cc1nn(-c2cnccn2)c(C)c1-c1cc(N2CCOC[C@H]2C)nc(-c2cc(F)cc3[nH]ccc23)n1 [Compound A25]	0.53 µM
CNc1nc2ccccc2n1-c1nc(-c2c(C)nn(-c3ccc(C#N)nc3)c2C)cc(N2CCOC[C@H]2C)n1 [Compound B2]	0.278 µM
CNc1nc2ccccc2n1-c1nc(-c2c(C)nn(-c3cncc(Cl)c3)c2C)cc(N2CCOC[C@H]2C)n1 [Compound B3]	0.411 µM
CNc1nc2ccccc2n1-c1nc(-c2c(C)nn(-c3cncc(C#N)c3)c2C)cc(N2CCOC[C@H]2C)n1 [Compound B4]	0.306 µM
CNc1nc2ccccc2n1-c1nc(-c2c(C)nn(-c3cnc(N)c(F)c3)c2C)cc(N2CCOC[C@H]2C)n1 [Compound B5]	0.383 µM
CNc1nc2ccccc2n1-c1nc(-c2c(C)nn(-c3cccnc3)c2C)cc(N2CCOC[C@H]2C)n1 [Compound B6]	0.483 µM
CNc1nc2ccccc2n1-c1nc(-c2c(C)nn(-c3ccc(OC)nc3)c2C)cc(N2CCOC[C@H]2C)n1 [Compound B7]	0.544 µM
CC#Cc1cncc(-n2nc(C)c(-c3cc(N4CCOC[C@H]4C)nc(-n4c(NC)nc5ccccc54)n3)c2C)c1 [Compound B8]	0.212 µM
CNc1nc2ccccc2n1-c1nc(-c2c(C)nn(-c3ccc(=O)[nH]c3)c2C)cc(N2CCOC[C@H]2C)n1 [Compound B9]	0.226 µM
CNc1nc2ccccc2n1-c1nc(-c2c(C)nn(-c3cncc(C(N)=O)c3)c2C)cc(N2CCOC[C@H]2C)n1 [Compound B10]	0.219 µM
Cc1nn(-c2cncc(F)c2)c(C)c1-c1cc(N2CCOC[C@H]2C)nc(-n2c(NCCO)nc3ccccc32)n1 [Compound B11]	0.276 µM
Cc1nn(-c2cncc(F)c2)c(C)c1-c1cc(N2CCOC[C@H]2C)nc(-n2c(N)nc3ccccc32)n1 [Compound B12]	0.257 µM
Cc1nn(-c2cncc(F)c2)c(C)c1-c1cc(C23CCOCC2C3)nc(-c2cc(F)cc3[nH]ccc23)n1 (stereo not shown) [Compound C2]	1.07 µM

test system: MV4-11 (leukemia); assay: Cell proliferation inhibition in vitro, CellTiter-Glo, MV4-11; format: cell-based; details: Homo sapiens, MV4-11, 120 h, read-out: MV4-11/IC50/μM
Protocol: as §1, §2
MV-4-11 cells were cultured in IMDM medium (containing 20% of FBS). About 10,000 cells were inoculated in each well of a 96-well culture plate, and treated by adding different concentrations (0-10 μM) of compounds to be assayed. Each group was assayed in triplicate. Blank wells (containing medium only) and control wells (inoculated cells without being treated with drug) were set. Cells were cultured for 120 hours. 40 μL of Cell Titer-Glo solutions were added to each well, and the cells were incubated with shaking for 20 min in the dark. 100 μL of solution was transferred from each well to a 96-well blank plate, and the luminescence value was read by Biotek Synergy HI multifunctional microplate reader. Inhibition rate (%)=100%×(control well−assay well)/(control well−blank well)

SMILES	IC50
Cc1nn(-c2cncc(F)c2)c(C)c1-c1nc(-c2cccc3[nH]ccc23)nc(N2CCOC[C@H]2C)n1 [Compound C1]	0.903 µM

same assay, conditions: Homo sapiens; MV4-11 cells, 120 hours, CellTiter-Glo; read-out: MV4-11/IC50/μM

SMILES	IC50
Cc1nn(-c2cncc(O)c2)c(C)c1-c1cc(N2CCOC[C@H]2C)nc(-c2cccc3[nH]ccc23)n1 [Compound A23]	0.175 µM
Cc1nn(-c2cncc(C(N)=O)c2)c(C)c1-c1cc(N2CCOC[C@H]2C)nc(-c2cccc3[nH]ccc23)n1 [Compound A24]	0.18 µM
Cc1nn(-c2cnccn2)c(C)c1-c1cc(N2CCOC[C@H]2C)nc(-c2cc(F)cc3[nH]ccc23)n1 [Compound A25]	0.46 µM
CNc1nc2ccccc2n1-c1nc(-c2c(C)nn(-c3ccc(C#N)nc3)c2C)cc(N2CCOC[C@H]2C)n1 [Compound B2]	0.133 µM
CNc1nc2ccccc2n1-c1nc(-c2c(C)nn(-c3cncc(Cl)c3)c2C)cc(N2CCOC[C@H]2C)n1 [Compound B3]	0.303 µM
CNc1nc2ccccc2n1-c1nc(-c2c(C)nn(-c3cncc(C#N)c3)c2C)cc(N2CCOC[C@H]2C)n1 [Compound B4]	0.25 µM
CNc1nc2ccccc2n1-c1nc(-c2c(C)nn(-c3cnc(N)c(F)c3)c2C)cc(N2CCOC[C@H]2C)n1 [Compound B5]	0.208 µM
CNc1nc2ccccc2n1-c1nc(-c2c(C)nn(-c3cccnc3)c2C)cc(N2CCOC[C@H]2C)n1 [Compound B6]	0.439 µM
CNc1nc2ccccc2n1-c1nc(-c2c(C)nn(-c3ccc(OC)nc3)c2C)cc(N2CCOC[C@H]2C)n1 [Compound B7]	0.549 µM
CC#Cc1cncc(-n2nc(C)c(-c3cc(N4CCOC[C@H]4C)nc(-n4c(NC)nc5ccccc54)n3)c2C)c1 [Compound B8]	0.519 µM
CNc1nc2ccccc2n1-c1nc(-c2c(C)nn(-c3ccc(=O)[nH]c3)c2C)cc(N2CCOC[C@H]2C)n1 [Compound B9]	0.157 µM
CNc1nc2ccccc2n1-c1nc(-c2c(C)nn(-c3cncc(C(N)=O)c3)c2C)cc(N2CCOC[C@H]2C)n1 [Compound B10]	0.287 µM
Cc1nn(-c2cncc(F)c2)c(C)c1-c1cc(N2CCOC[C@H]2C)nc(-n2c(NCCO)nc3ccccc32)n1 [Compound B11]	0.24 µM
Cc1nn(-c2cncc(F)c2)c(C)c1-c1cc(N2CCOC[C@H]2C)nc(-n2c(N)nc3ccccc32)n1 [Compound B12]	0.253 µM
Cc1nn(-c2cncc(F)c2)c(C)c1-c1cc(C23CCOCC2C3)nc(-c2cc(F)cc3[nH]ccc23)n1 (stereo not shown) [Compound C2]	0.896 µM
